Reference: ChEMBL document CHEMBL2424545, “Structure-efficiency relationship of [1,2,4]triazol-3-ylamines as novel nicotinamide isosteres that inhibit tankyrases” (J Med Chem, 2013)
≈ marks a conversion by molar mass, not a printed value.

Test system: not listed separately
Test: Plasma clearance in C57BL/6 mouse at 1 mg/kg, iv
Assay type: ADME, organism-based
Parameters: dose 1 mg/kg, route intravenous
Details: not given

| clearance [mL/min/kg] | Structure (SMILES) |
| --- | --- |
| 17 | CC(C)CC(=O)Nc1nnc2n1CCS2 |

Test system: not listed separately
Test: Volume of distribution in iv dosed Sprague-Dawley rat
Assay type: ADME, organism-based
Details: in vivo

| Vd [L/kg] | Structure (SMILES) |
| --- | --- |
| 1.1 | O=C(CCc1c(Cl)cccc1Cl)Nc1nnc2n1CCS2 |

Test system: Mus musculus
Test: T(last) in C57BL/6 mouse at 1 mg/kg, iv
Assay type: ADME, organism-based
Parameters: dose 1 mg/kg, route intravenous
Details: in vivo

| Tlast [h] | Structure (SMILES) |
| --- | --- |
| 1 | CC(C)CC(=O)Nc1nnc2n1CCS2 |

Test system: not listed separately
Test: Tmax in C57BL/6 mouse at 1 mg/kg, iv
Assay type: ADME, organism-based
Parameters: dose 1 mg/kg, route intravenous
Details: in vivo

| Tmax [min] | Structure (SMILES) |
| --- | --- |
| 18 | CC(C)CC(=O)Nc1nnc2n1CCS2 |

Test system: not listed separately
Test: Cmax in C57BL/6 mouse at 1 mg/kg, iv
Assay type: ADME, organism-based
Parameters: dose 1 mg/kg, route intravenous
Details: in vivo

| Cmax [µM] | Structure (SMILES) |
| --- | --- |
| 19.1 | CC(C)CC(=O)Nc1nnc2n1CCS2 |

Test system: not listed separately
Test: Solubility of the compound at pH 6.8
Assay type: physicochemical
Details: buffer

| solubility [µM] | Structure (SMILES) |
| --- | --- |
| > 100 | CC(C)(C)c1ccc(C(=O)Nc2nnc3n2CCS3)cc1 |
| > 1000 | CC(C)CC(=O)Nc1nnc2n1CCS2 |
| 630 (≈ 168 µg/mL) | O=C(CCC1CCCC1)Nc1nnc2n1CCS2 |
| 16 (≈ 5.49 µg/mL) | O=C(CCc1c(Cl)cccc1Cl)Nc1nnc2n1CCS2 |

Test system: not listed separately
Test: Plasma clearance in iv dosed Sprague-Dawley rat
Assay type: ADME, organism-based
Details: not given

| clearance [mL/min/kg] | Structure (SMILES) |
| --- | --- |
| 45.6 | O=C(CCc1c(Cl)cccc1Cl)Nc1nnc2n1CCS2 |

Test system: not listed separately
Test: Volume of distribution at steady state in C57BL/6 mouse at 1 mg/kg, iv
Assay type: ADME, organism-based
Parameters: dose 1 mg/kg, route intravenous
Details: in vivo, read-out: Vdss(app)

| Vd [L/kg] | Structure (SMILES) |
| --- | --- |
| 0.1 | CC(C)CC(=O)Nc1nnc2n1CCS2 |

Biological target: Poly [ADP-ribose] polymerase 2 (Homo sapiens, UniProt Q9UGN5)
Test: Inhibition of PARP2 (unknown origin) after 60 mins by LC-MS analysis
Details: not given

Poly [ADP-ribose] polymerase 2, sequence (Q9UGN5 whole entry): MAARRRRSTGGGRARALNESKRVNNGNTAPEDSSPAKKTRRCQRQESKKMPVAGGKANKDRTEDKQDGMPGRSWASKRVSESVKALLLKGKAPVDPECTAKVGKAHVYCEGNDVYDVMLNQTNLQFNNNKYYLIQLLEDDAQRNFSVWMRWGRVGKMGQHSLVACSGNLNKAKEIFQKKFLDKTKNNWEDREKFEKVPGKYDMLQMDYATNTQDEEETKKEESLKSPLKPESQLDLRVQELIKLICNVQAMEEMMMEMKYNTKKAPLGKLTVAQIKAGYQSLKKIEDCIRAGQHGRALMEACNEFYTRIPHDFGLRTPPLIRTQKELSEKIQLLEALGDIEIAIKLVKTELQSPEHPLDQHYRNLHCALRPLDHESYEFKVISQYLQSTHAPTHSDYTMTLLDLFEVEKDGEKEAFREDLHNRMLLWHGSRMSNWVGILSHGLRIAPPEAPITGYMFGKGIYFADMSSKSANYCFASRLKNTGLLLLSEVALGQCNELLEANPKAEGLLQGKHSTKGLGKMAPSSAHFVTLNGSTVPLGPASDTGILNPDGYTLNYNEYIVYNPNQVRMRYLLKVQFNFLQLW

| IC50 [µM] | Structure (SMILES) |
| --- | --- |
| > 19 | CC(C)(C)c1ccc(C(=O)Nc2nnc3n2CCS3)cc1 |
| > 19 | O=C(CCc1c(Cl)cccc1Cl)Nc1nnc2n1CCS2 |

Biological target: T1, Poly [ADP-ribose] polymerase tankyrase-1 (Homo sapiens, UniProt O95271)
T1 sequence (O95271 whole entry): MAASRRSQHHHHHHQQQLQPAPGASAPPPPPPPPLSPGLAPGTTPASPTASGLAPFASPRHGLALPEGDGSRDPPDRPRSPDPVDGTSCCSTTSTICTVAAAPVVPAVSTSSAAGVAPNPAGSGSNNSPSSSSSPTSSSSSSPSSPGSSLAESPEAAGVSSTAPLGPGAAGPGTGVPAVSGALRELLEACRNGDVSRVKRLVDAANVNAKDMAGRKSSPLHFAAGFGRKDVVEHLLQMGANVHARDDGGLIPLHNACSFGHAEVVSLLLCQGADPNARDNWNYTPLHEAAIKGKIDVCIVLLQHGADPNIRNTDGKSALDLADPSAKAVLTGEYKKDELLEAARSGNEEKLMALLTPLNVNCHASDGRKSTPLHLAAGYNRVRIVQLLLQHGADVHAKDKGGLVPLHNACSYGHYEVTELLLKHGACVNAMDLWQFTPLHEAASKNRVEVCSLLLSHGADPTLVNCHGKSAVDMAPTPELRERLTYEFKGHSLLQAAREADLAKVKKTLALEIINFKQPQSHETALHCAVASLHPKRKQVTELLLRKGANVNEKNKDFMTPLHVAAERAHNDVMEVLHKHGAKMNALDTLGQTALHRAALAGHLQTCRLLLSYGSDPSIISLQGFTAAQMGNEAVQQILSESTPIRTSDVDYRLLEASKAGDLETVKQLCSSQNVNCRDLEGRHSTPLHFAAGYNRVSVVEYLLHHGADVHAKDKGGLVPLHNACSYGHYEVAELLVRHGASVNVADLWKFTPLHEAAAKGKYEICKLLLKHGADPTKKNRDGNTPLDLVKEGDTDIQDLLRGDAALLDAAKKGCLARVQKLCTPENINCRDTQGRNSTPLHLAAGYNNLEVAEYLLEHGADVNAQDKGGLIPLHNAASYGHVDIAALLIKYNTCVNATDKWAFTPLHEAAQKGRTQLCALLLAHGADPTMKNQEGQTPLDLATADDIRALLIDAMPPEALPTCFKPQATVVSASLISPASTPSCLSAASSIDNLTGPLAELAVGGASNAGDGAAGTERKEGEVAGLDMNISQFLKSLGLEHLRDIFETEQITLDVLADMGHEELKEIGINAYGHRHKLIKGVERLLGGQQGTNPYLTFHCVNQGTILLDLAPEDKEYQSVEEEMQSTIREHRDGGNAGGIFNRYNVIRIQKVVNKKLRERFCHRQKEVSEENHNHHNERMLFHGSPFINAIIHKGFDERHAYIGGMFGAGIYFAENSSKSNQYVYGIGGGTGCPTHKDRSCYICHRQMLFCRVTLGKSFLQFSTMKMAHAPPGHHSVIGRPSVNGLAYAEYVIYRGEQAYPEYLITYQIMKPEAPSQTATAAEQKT
Test: Inhibition of N-terminal GST-tagged human TNKS1 expressed in baculovirus infected sf21 cells after 60 mins by LC-MS analysis
Details: not given

| IC50 [nM] | Structure (SMILES) |
| --- | --- |
| 299 | CC(C)(C)c1ccc(C(=O)Nc2nnc3n2CCS3)cc1 |
| 395 | CC(C)CC(=O)Nc1nnc2n1CCS2 |
| 28 | O=C(CCC1CCCC1)Nc1nnc2n1CCS2 |
| 12 | O=C(CCc1c(Cl)cccc1Cl)Nc1nnc2n1CCS2 |

Test system: not listed separately
Test: Mean residence time (0 to t) in C57BL/6 mouse at 1 mg/kg, iv
Assay type: ADME, organism-based
Parameters: dose 1 mg/kg, route intravenous
Details: in vivo

| MRT last [min] | Structure (SMILES) |
| --- | --- |
| 6 | CC(C)CC(=O)Nc1nnc2n1CCS2 |

Biological target: Poly [ADP-ribose] polymerase 1 (Homo sapiens, UniProt P09874)
Test: not given
Details: not given

Poly [ADP-ribose] polymerase 1, sequence (P09874 whole entry): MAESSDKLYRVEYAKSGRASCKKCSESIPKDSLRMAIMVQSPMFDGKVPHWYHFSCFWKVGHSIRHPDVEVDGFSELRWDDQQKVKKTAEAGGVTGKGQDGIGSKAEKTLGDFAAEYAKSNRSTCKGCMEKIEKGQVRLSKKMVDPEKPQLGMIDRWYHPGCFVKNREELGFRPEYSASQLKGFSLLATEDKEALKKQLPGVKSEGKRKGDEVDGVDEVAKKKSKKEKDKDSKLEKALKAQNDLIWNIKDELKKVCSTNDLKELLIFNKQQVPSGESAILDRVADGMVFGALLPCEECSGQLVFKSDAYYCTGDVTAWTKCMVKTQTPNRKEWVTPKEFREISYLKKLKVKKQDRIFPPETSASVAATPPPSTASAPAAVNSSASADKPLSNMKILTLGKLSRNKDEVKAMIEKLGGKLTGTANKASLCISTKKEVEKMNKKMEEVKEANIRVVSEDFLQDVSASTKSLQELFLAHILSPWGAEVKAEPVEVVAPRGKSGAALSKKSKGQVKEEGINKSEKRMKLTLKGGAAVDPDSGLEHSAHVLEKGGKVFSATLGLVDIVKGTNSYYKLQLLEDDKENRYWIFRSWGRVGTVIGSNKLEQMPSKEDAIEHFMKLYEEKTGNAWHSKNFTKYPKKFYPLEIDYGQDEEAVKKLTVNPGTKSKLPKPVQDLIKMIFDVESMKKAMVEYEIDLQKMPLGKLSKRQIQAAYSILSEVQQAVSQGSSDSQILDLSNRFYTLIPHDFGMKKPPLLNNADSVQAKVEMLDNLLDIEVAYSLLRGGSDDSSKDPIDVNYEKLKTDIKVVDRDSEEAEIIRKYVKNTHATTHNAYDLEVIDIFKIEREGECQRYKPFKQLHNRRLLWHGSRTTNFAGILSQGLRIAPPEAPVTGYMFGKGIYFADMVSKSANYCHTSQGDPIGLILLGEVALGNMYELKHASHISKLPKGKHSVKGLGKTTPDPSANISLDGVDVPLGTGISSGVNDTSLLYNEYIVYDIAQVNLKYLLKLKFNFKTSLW

| IC50 [µM] | Structure (SMILES) |
| --- | --- |
| 55.3 | CC(C)CC(=O)Nc1nnc2n1CCS2 |
| > 19 | O=C(CCc1c(Cl)cccc1Cl)Nc1nnc2n1CCS2 |

Test system: not listed separately
Test: AUC (last) in C57BL/6 mouse at 5 mg/kg, po
Assay type: ADME, organism-based
Parameters: time 0 - last, dose 5 mg/kg, route oral
Details: plasma

| AUC(0-t) [µM·h] | Structure (SMILES) |
| --- | --- |
| 8.6 | CC(C)CC(=O)Nc1nnc2n1CCS2 |

Test system: not listed separately
Test: Inhibition of TNKS in human SW480 cells assessed as stabilization of axin2 after 24 hrs by ELISA
Assay type: cell-based
Details: not given

| IC50 [µM] | Structure (SMILES) |
| --- | --- |
| > 10 | CC(C)(C)c1ccc(C(=O)Nc2nnc3n2CCS3)cc1 |
| 7.67 | CC(C)CC(=O)Nc1nnc2n1CCS2 |
| 3.08 | O=C(CCC1CCCC1)Nc1nnc2n1CCS2 |
| 0.377 | O=C(CCc1c(Cl)cccc1Cl)Nc1nnc2n1CCS2 |

Biological target: T2, Poly [ADP-ribose] polymerase tankyrase-2 (Homo sapiens, UniProt Q9H2K2)
T2 sequence (Q9H2K2 whole entry): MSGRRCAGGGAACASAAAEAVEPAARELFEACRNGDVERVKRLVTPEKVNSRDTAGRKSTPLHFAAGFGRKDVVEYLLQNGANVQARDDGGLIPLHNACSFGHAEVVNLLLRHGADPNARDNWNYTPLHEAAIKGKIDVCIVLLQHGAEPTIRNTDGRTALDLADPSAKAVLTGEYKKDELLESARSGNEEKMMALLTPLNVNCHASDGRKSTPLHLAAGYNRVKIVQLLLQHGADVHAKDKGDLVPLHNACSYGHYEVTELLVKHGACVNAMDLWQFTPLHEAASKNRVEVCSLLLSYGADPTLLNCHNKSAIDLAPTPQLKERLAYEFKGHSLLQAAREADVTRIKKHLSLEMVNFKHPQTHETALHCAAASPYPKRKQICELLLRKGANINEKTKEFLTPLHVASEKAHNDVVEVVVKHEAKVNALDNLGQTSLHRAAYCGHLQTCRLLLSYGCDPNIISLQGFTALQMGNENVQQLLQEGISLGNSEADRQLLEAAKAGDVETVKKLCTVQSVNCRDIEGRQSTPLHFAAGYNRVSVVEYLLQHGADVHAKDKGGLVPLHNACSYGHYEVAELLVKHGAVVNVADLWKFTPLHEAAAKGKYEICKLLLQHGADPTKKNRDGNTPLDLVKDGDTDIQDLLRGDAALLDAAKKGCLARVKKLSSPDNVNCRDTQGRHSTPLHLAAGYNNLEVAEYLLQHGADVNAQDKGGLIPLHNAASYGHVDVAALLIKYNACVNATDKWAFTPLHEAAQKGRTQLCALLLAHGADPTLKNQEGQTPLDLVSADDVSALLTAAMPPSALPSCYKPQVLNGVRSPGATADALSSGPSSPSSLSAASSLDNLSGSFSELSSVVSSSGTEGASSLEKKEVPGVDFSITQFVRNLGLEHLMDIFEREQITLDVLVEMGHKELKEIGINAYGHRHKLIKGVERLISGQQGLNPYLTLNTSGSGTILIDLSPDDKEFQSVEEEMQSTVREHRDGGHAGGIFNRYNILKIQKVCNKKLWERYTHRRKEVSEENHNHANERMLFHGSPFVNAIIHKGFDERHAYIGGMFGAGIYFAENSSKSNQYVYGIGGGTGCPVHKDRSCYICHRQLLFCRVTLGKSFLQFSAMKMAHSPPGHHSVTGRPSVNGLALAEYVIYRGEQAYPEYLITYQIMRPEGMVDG
Test: Inhibition of N-terminal GST-tagged TNKS2 (unknown origin) expressed in baculovirus infected sf21 cells after 60 mins by LC-MS analysis
Details: not given

| IC50 [nM] | Structure (SMILES) |
| --- | --- |
| 31 | CC(C)(C)c1ccc(C(=O)Nc2nnc3n2CCS3)cc1 |
| 103 | CC(C)CC(=O)Nc1nnc2n1CCS2 |
| 9 | O=C(CCC1CCCC1)Nc1nnc2n1CCS2 |
| 3 | O=C(CCc1c(Cl)cccc1Cl)Nc1nnc2n1CCS2 |

Test system: not listed separately
Test: AUC (last) in C57BL/6 mouse at 1 mg/kg, iv
Assay type: ADME, organism-based
Parameters: time 0 - last, dose 1 mg/kg, route intravenous
Details: plasma

| AUC(0-t) [µM·h] | Structure (SMILES) |
| --- | --- |
| 4.73 | CC(C)CC(=O)Nc1nnc2n1CCS2 |

Test system: not listed separately
Test: Oral bioavailability in C57BL/6 mouse at 5 mg/kg
Assay type: ADME, organism-based
Details: in vivo

| bioavailability [%] | Structure (SMILES) |
| --- | --- |
| 36 | CC(C)CC(=O)Nc1nnc2n1CCS2 |

Test system: not listed separately
Test: Hepatic extraction ratio in human liver microsomes
Assay type: ADME, Microsome
Details: read-out: ERH

| hepatic extraction ratio | Structure (SMILES) |
| --- | --- |
| 0.36 | CC(C)(C)c1ccc(C(=O)Nc2nnc3n2CCS3)cc1 |
| 0.17 | CC(C)CC(=O)Nc1nnc2n1CCS2 |
| 0.68 | O=C(CCC1CCCC1)Nc1nnc2n1CCS2 |
| 0.61 | O=C(CCc1c(Cl)cccc1Cl)Nc1nnc2n1CCS2 |

Test system: not listed separately
Test: Cmax in C57BL/6 mouse at 5 mg/kg, po
Assay type: ADME, organism-based
Parameters: dose 5 mg/kg, route oral
Details: in vivo

| Cmax [µM] | Structure (SMILES) |
| --- | --- |
| 13.7 | CC(C)CC(=O)Nc1nnc2n1CCS2 |

Test system: not listed separately
Test: Hepatic extraction ratio in mouse liver microsomes
Assay type: ADME, Microsome
Details: read-out: ERH

| hepatic extraction ratio | Structure (SMILES) |
| --- | --- |
| 0.84 | CC(C)(C)c1ccc(C(=O)Nc2nnc3n2CCS3)cc1 |
| 0.29 | CC(C)CC(=O)Nc1nnc2n1CCS2 |
| 0.91 | O=C(CCC1CCCC1)Nc1nnc2n1CCS2 |
| 0.91 | O=C(CCc1c(Cl)cccc1Cl)Nc1nnc2n1CCS2 |

Test system: not listed separately
Test: Half life in C57BL/6 mouse at 1 mg/kg, iv
Assay type: ADME, organism-based
Parameters: dose 1 mg/kg, route intravenous
Details: in vivo

| half-life [min] | Structure (SMILES) |
| --- | --- |
| 6 | CC(C)CC(=O)Nc1nnc2n1CCS2 |

Test system: not listed separately
Test: Inhibition of Wnt signaling in human HEK293 cells by STF luciferase reporter gene assay
Details: not given

| IC50 [nM] | Structure (SMILES) |
| --- | --- |
| 2390 | CC(C)(C)c1ccc(C(=O)Nc2nnc3n2CCS3)cc1 |
| 6450 | CC(C)CC(=O)Nc1nnc2n1CCS2 |
| 194 | O=C(CCC1CCCC1)Nc1nnc2n1CCS2 |
| 29 | O=C(CCc1c(Cl)cccc1Cl)Nc1nnc2n1CCS2 |

Test system: not listed separately
Test: Tmax in C57BL/6 mouse at 5 mg/kg, po
Assay type: ADME, organism-based
Parameters: dose 5 mg/kg, route oral
Details: in vivo

| Tmax [min] | Structure (SMILES) |
| --- | --- |
| 18 | CC(C)CC(=O)Nc1nnc2n1CCS2 |
